Where “and” joins values, the source holds several entries; their conditions need not be identical. Identical values can stand only once. Entries after “also recorded” stand apart in the source; their conditions may differ.
What was measured:
E. coli W3110 = assay: uptake of 14C-substrate (thymine, adenine, glutamic acid, alanine) by E. coli W3110; conditions: for adenine incorporation / alanine incorporation / glutamic acid incorporation / thymine incorporation: E. coli W3110
Procedure: (§1) In the Table, "glucose" was added as an energy source for cells in which propagation had been terminated and "CM" (Chloramphenicol) was added so as to terminate propagation of cells. […] Separately, instead of this composition of the foregoing additives, a composition comprising glucose, CM, 14C-substrate and colistin was added and cells were similarly obtained. The colistin was added for a comparison system to the Ba-added system because colistin is a permeation inhibitor for cell membranes (antibiotic substance).
(§2) In Table 2, the value of each numerator means a value measured by a scintillation counter and the value of each denominator means a ratio (%) to the value of the control (100%).

E. coli S = assay: uptake of 14C-substrate (tryptophane) by E. coli S; conditions: for tryptophane incorporation: E. coli S
Procedure: as §1, §2

Escherichia coli [1] = assay: influence on uptake of amino acids and nucleic acid bases by Escherichia coli (incl. time course, FIGS. 1 and 2); conditions: in words
Procedure: as §1

Escherichia coli [2] = assay: outflow of incorporated substrates from Escherichia coli cells (FIG. 3); conditions: FIG. 3, in words
Adeno-carcinoma 755 [3] = assay: Test 1: tumor weight, subcutaneously implanted Adeno-carcinoma 755; assay type: in vivo, mice (first filial generation of C57BL/6 and DBA/2); conditions: 11th day
Procedure: (§3) As the experimental animal, there were used four mice of the first filial generation of C57BL/6 and DBA/2, which were 6 to 7 weeks old. A carcinoma (Adeno-carcinoma 755) was implanted on the hypoderm in the back by using an implanting needle. […] This treatment was conduced once a day for 9 days. On the 11th day from the implantation, the weight of the tumor was measured with respect to each group to obtain the results shown in Table 3.

Adeno-carcinoma 755 [4] = assay: Test 2: tumor weight, Adeno-carcinoma 755, intraperitoneal benzaldehyde; assay type: in vivo, mice (first filial generation of C57BL/6 and DBA/2); conditions: 11th day
Procedure: as §3
The treatment was continued for 9 days. On the 11th day from the implantation, the tumor weight was measured with respect to each group to obtain results shown in Table 4.

Ehrlich carcinoma [5] = assay: Test 3: tumor weight, subcutaneously implanted Ehrlich carcinoma (solid tumor); assay type: in vivo, mice of RFVL
Procedure: Ten mice of RFVL which were 4 to 5 weeks old were used as the experiemental animals, and about 10^6 cells/0.2 ml of Ehrlich carcinoma were implanted subcutaneously at the right armpit. […] This treatment was continued for 9 days. On the 11th day from the tumor implantation, the tumor weight was measured with respect to each group to obtain results shown in Table 5. In each of control and treated groups, the increase of the body weight in the tested mice during the test was 3.5 g as the average value determined on 10 mice.

Ehrlich carcinoma [6] = assay: Test 4: survival effect, intraperitoneally implanted Ehrlich carcinoma (FIG. 4); assay type: in vivo, mice of RFVL; conditions: 10 days
Procedure: Ten mice of RFVL which were 4 to 5 weeks old were used as the test animals and about 10^6 cells/0.2 ml of Ehrlich carcinoma were implanted intraperitoneally.
In FIG. 4, the suspension was administered at doses of 25, 50 and 100 mg/Kg/day to treated groups and the 0.85% biological sodium chloride solution alone was administered to a control group. Parenthesized values shown for each group are average values of the number of living days and the survival ratio.

[7] = continuous administration for 10 days, toxicity; assay type: in vivo
Description: (§4) In general, Ehrlich ascites tumor is highly sensitive to conventional carcinostatic agents of cytotoxic type, and Ehrlich solid tumor is relatively lowly sensitive to most of these known carcinostatic agents. […] Thus, the composition of the present invention is very unique in the point that it is efficacious against a broadrange of carcinomatous diseases.

[8] = tested on: malignant cells of adenomatous carcinoma, squamous cell carninoma, sarcoma and the like, especially undifferentiated tumors; assay: clinical experiments, sensitivity of malignant cells; assay type: in vivo, human; conditions: in words
Description: as §4

[9] = excretion from the living body; assay type: in vivo; conditions: in words
lymphosarcoma = assay: effect against lymphosarcoma; conditions: in words
tumor cells of mice = assay: control of tumor cells of mice; conditions: in words

**Q.** Which adenine incorporation (E. coli W3110; adenine, benzaldehyde 10^-1 PPM) does the source give for `O=Cc1ccccc1` [benzaldehyde] here?
**A.** 3135 CPM

**Q.** And the adenine incorporation (E. coli W3110; adenine, benzaldehyde 10^-2 PPM)?
**A.** 3684 CPM

**Q.** And the adenine incorporation (E. coli W3110; adenine, benzaldehyde 10^-3 PPM)?
**A.** 4246 CPM

**Q.** And the alanine incorporation (E. coli W3110; alanine, benzaldehyde 10^-1 PPM)?
**A.** 5283 CPM

**Q.** And the alanine incorporation (E. coli W3110; alanine, benzaldehyde 10^-2 PPM)?
**A.** 5438 CPM

**Q.** What about the alanine incorporation (E. coli W3110; alanine, benzaldehyde 10^-3 PPM) of the same compound?
**A.** 5838 CPM

**Q.** What about the glutamic acid incorporation (E. coli W3110; glutamic acid, benzaldehyde 10^-1 PPM) of the same compound?
**A.** 2842 CPM

**Q.** And the glutamic acid incorporation (E. coli W3110; glutamic acid, benzaldehyde 10^-2 PPM)?
**A.** 2779 CPM

**Q.** What about the glutamic acid incorporation (E. coli W3110; glutamic acid, benzaldehyde 10^-3 PPM) of the same compound?
**A.** 3203 CPM

**Q.** And the thymine incorporation (E. coli W3110; thymine, benzaldehyde 10^-1 PPM)?
**A.** 1399 CPM

**Q.** What about the thymine incorporation (E. coli W3110; thymine, benzaldehyde 10^-2 PPM) of the same compound?
**A.** 1566 CPM

**Q.** What about the thymine incorporation (E. coli W3110; thymine, benzaldehyde 10^-3 PPM) of the same compound?
**A.** 1891 CPM

**Q.** And the tryptophane incorporation (E. coli S; benzaldehyde 10^-1 PPM)?
**A.** 1076 CPM

**Q.** And the tryptophane incorporation (E. coli S; benzaldehyde 10^-2 PPM)?
**A.** 915 CPM

**Q.** And the tryptophane incorporation (E. coli S; benzaldehyde 10^-3 PPM)?
**A.** 808 CPM

**Q.** What about the “influence on uptake of nucleic acids and other amino acids” value (Escherichia coli [1]; substrates other than tryptophane) of the same compound?
**A.** incorporation of nucleic acids and other amino acids is inhibited; also recorded: exerts an uptake inhibiting action in the case of other substrates

**Q.** And the “influence on uptake of tryptophane” value (Escherichia coli [1]; tryptophane)?
**A.** the incorporation is promoted; also recorded: the uptake of tryptophane increases with the lapse of time; also recorded: specifically promotes the uptake of tryptophane among substrates

**Q.** And the “damage to cell membranes” value (Escherichia coli [2])?
**A.** causes no damage to cell membranes

**Q.** What about the “outflow of incorporated substrate” value (Escherichia coli [2]) of the same compound?
**A.** outflow of the substrate is remarkably reduced and is not changed from outflow of the substrate in the control system

**Q.** And the “Average Weight (tumor)” value (Adeno-carcinoma 755 [3]; 10 ppm suspension s.c. for 9 days, control 5.8 g)?
**A.** 3.8 g

**Q.** And the “Tumor Weight” value (Adeno-carcinoma 755 [3]; individual animal, 10 ppm suspension 0.5 to 1.0 ml s.c. once a day for 9 days)?
**A.** 4.6 g and 2.6 g and 4.1 g

**Q.** What about the “Average Weight (tumor)” value (Adeno-carcinoma 755 [4]; 3.5% suspension 0.1 ml i.p. for 9 days, control 5.90 g) of the same compound?
**A.** 3.55 g

**Q.** What about the “Tumor Weight” value (Adeno-carcinoma 755 [4]; individual animal, 3.5% suspension 0.1 ml i.p. once a day for 9 days) of the same compound?
**A.** 3.3 g and 3.4 g and 4.0 g and 3.5 g

**Q.** What about the “increase of the body weight during the test (average)” value (Ehrlich carcinoma [5]; 10 mg/Kg i.p. for 9 days, 10 mice, same in control group) of the same compound?
**A.** 3.5 g

**Q.** And the “Average Weight (tumor)” value (Ehrlich carcinoma [5]; 10 mg/Kg i.p. for 9 days, 11th day, control 2.79 g)?
**A.** 1.24 g

**Q.** What about the “Tumor Weight” value (Ehrlich carcinoma [5]; individual animal, 10 mg/Kg i.p. once a day for 9 days, 11th day, 10 mg/kg) of the same compound?
**A.** 3.8 g and 2.4 g and 2.2 g and 0.8 g and 0.6 g and 0.5 g and 0.4 g and 0.3 g

**Q.** And the “effect on Ehrlich solid tumor” value (Ehrlich carcinoma [5]; solid versus ascites tumor, in words)?
**A.** acts strongly on the solid tumor rather than the ascites tumor; also recorded: prominent effect on Erlich solid tumor

**Q.** And the survival effect (Ehrlich carcinoma [6]; 50 mg/Kg per day i.p.)?
**A.** 15.4%

**Q.** What about the survival effect (Ehrlich carcinoma [6]; 100 mg/Kg per day i.p.) of the same compound?
**A.** 26.9%

**Q.** What about the “daily dose without bad influences such as toxicity on the host” value ([7]; administered continuously for 10 days) of the same compound?
**A.** up to 200 mg/Kg

**Q.** What about the NOAEL at 240 h ([7]; in vivo, ip, continuous intraperitoneal injection for 10 days, read-out: daily dose at which no toxicity is observed) of the same compound?
**A.** ≥ 200 mg/kg/day

**Q.** And the side effects ([7]; in words)?
**A.** causes no side effects

**Q.** What about the “sensitivity of malignant cells” value [8] of the same compound?
**A.** highly sensitive to benzaldehyde

**Q.** And the “excretion from the living body” value [9]?
**A.** promptly excreted from the living body; also recorded: promptly extracted from living bodies

**Q.** And the effect against lymphosarcoma (lymphosarcoma)?
**A.** effective against lymphosarcoma

**Q.** And the “control of tumor cells of mice” value (tumor cells of mice)?
**A.** effective for controlling tumor cells of mice

**Q.** For colistin [reference compound], which adenine incorporation (E. coli W3110; adenine, colistin 5 PPM) is on record?
**A.** 1066 CPM

**Q.** And the “adenine incorporation, ratio (%) to the control” value (E. coli W3110; adenine, colistin 5 PPM, control 100%)?
**A.** 23%

**Q.** What about the alanine incorporation (E. coli W3110; alanine, colistin 5 PPM) of the same compound?
**A.** 1009 CPM

**Q.** What about the “alanine incorporation, ratio (%) to the control” value (E. coli W3110; alanine, colistin 5 PPM, control 100%) of the same compound?
**A.** 17%

**Q.** What about the glutamic acid incorporation (E. coli W3110; glutamic acid, colistin 5 PPM) of the same compound?
**A.** 670 CPM

**Q.** And the “glutamic acid incorporation, ratio (%) to the control” value (E. coli W3110; glutamic acid, colistin 5 PPM, control 100%)?
**A.** 16%

**Q.** And the thymine incorporation (E. coli W3110; thymine, colistin 5 PPM)?
**A.** 333 CPM

**Q.** And the “thymine incorporation, ratio (%) to the control” value (E. coli W3110; thymine, colistin 5 PPM, control 100%)?
**A.** 16%

**Q.** And the tryptophane incorporation (E. coli S; colistin 5 PPM)?
**A.** 439 CPM

**Q.** What about the “tryptophane incorporation, ratio (%) to the control” value (E. coli S; colistin 5 PPM, control 100%) of the same compound?
**A.** 65%

**Q.** What about the “damage to cell membranes” value (Escherichia coli [2]) of the same compound?
**A.** cell membranes are destroyed

**Q.** What about the “outflow of incorporated substrate” value (Escherichia coli [2]) of the same compound?
**A.** outflow of the substrate is extreme
